pIC50, pKd: −log10 of the molar value. Like-named read-outs stand apart in the source and are kept apart here.
Assays:
[1] = target: T1, JAK2 JH2 WT (V536-D812) [W659A, W777A, F794H solubilizing mutations] (Homo sapiens, UniProt O60674, F794H/W659A/W777A); test: Surface Plasmon Resonance (SPR) binding assay, JAK2 JH2 domain
T1 construct: **JAK2 JH2 WT (V536-D812) [W659A, W777A, F794H solubilizing mutations]; C-thrombin-avi-His6; thrombin cleavage site (C); His6 (C); purchased Biortus
Outline: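 Kinetics came from 1:1 fits of single-cycle runs at 20 °C: four 3-fold dilutions from 5 uM for JH1 or 500 nM for JH2, 60 s association, and 300 s or 1200 s dissociation respectively. Protein was freshly captured per compound in the presence of 10 uM stabilizer compound, with running buffer of pH 7.5 HEPES/NaCl/glycerol/DTT plus 2% DMSO.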

[2] = system: TF1 JAK2 V617F STAT5 reporter; test: Cellular TF1 STAT5 assay (luciferase reporter), JAK2 V617F; type: cell-based; details: read-out: Cell PD TF1 V617F STAT5 (IC50)
Outline: (§1)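 Compounds were dispensed as 1000× DMSO stocks (10 mM top, 1:3 steps), then V617F JAK2 TF1 cells carrying a STAT3 or STAT5 luciferase reporter were added. After 18-20 h at 37 °C, ONE-glo reagent was added and luminescence measured.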

[3] = system: TF1 JAK2 V617F STAT3 reporter; test: Cellular TF1 STAT3 assay (luciferase reporter), JAK2 V617F; type: cell-based; details: read-out: Cell PD-TF1 JAK2 V617F STAT3 (IC50)
Outline: as §1

[4] = Homo sapiens, TF-1, TF1 cells, JAK2 V617F

T1 sequence (O60674 536-812 W659A/W777A/F794H): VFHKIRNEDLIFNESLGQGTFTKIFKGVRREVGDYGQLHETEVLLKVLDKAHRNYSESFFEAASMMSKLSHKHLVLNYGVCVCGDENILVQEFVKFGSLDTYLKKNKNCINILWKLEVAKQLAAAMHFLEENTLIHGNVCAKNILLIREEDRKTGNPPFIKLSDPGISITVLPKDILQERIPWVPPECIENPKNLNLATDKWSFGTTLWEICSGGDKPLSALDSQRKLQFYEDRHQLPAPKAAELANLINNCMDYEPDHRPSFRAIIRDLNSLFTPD

| SMILES | pKd ([1]; SPR, JAK2 JH2 domain) | pIC50 ([2]; TF1 JAK2 V617F) | pIC50 ([3]; TF1 JAK2 V617F) | pKd [1] | pIC50 [2, 4] | pIC50 [3, 4] |
| --- | --- | --- | --- | --- | --- | --- |
| CNC(=O)c1nnc(NC(=O)C2CC2)cc1Nc1cccc(-c2cn(C3CN(Cc4cccc(C#N)n4)C3)nc2C)c1OC [Compound 185] | 8.00 to 11.00 | 5.30 to 6.30 | 5.30 to 6.30 | – | – | – |
| CNC(=O)c1nnc(NC(=O)C2CC2)cc1Nc1ccc(C)c(-c2cc(C3CCN(Cc4cc(C#N)ccn4)CC3)n(C)n2)c1OC [Compound 186] | 6.30 to 7.30 | 4.00 to 5.30 | 4.00 to 5.30 | – | – | – |
| CNC(=O)c1nnc(NC(=O)C2CC2)cc1Nc1cccc(-c2cc(C3CN(Cc4cnn(C)c4)C3)n(C)n2)c1OC [Compound 187] | 6.30 to 7.30 | 4.00 to 5.30 | 4.00 to 5.30 | – | – | – |
| CNC(=O)c1nnc(NC(=O)C2CC2)cc1Nc1cccc(-c2ccc(C(=O)N(C)Cc3cncc(C#N)c3)nc2)c1OC [Compound 188] | 8.00 to 11.00 | 5.30 to 6.30 | 5.30 to 6.30 | – | – | – |
| CNC(=O)c1nnc(NC(=O)C2CC2)cc1Nc1cccc(-c2cc(C3CN(Cc4ccccn4)C3)nn2C)c1OC [Compound 189] | 7.30 to 8.00 | 4.00 to 5.30 | 4.00 to 5.30 | – | – | – |
| CNC(=O)c1cnc(NC(=O)C2CC2)cc1Nc1cccc(-c2cnn(C3CN(Cc4ccccn4)C3)c2)c1OC [Compound 190] | 8.00 to 11.00 | 5.30 to 6.30 | 5.30 to 6.30 | – | – | – |
| CNC(=O)c1nnc(NC(=O)C2CC2)cc1Nc1cccc(-c2cc(C3CN(Cc4cccc(C#N)n4)C3)nn2C)c1OC [Compound 191] | 7.30 to 8.00 | 4.00 to 5.30 | 4.00 to 5.30 | – | – | – |
| CNC(=O)c1nnc(NC(=O)C2CC2)cc1Nc1cccc(-c2ccc(C(=O)N(C)Cc3cnsc3)nc2)c1OC [Compound 195] | 8.00 to 11.00 | 5.30 to 6.30 | 5.30 to 6.30 | – | – | – |
| CNC(=O)c1nnc(NC(=O)C2CC2)cc1Nc1cccc(-c2ccc(C(=O)N3CCc4cccnc4CC3)nc2)c1OC [Compound 196] | – | – | – | 8.00 to 11.00 | 5.30 to 6.30 | 5.30 to 6.30 |
| CNC(=O)c1nnc(NC(=O)C2CC2)cc1Nc1cccc(-c2ccc(C(=O)N(C)Cc3c(C)nn(C)c3Cl)nc2)c1OC [Compound 197] | – | – | – | 8.00 to 11.00 | 6.30 to 7.30 | 6.30 to 7.30 |
| CNC(=O)c1nnc(NC(=O)C2CC2)cc1Nc1cccc(-c2ccc(C(=O)N(C)Cc3cn(C)nc3C(C)C)nc2)c1OC [Compound 198] | – | – | – | 8.00 to 11.00 | 6.30 to 7.30 | 6.30 to 7.30 |
| CNC(=O)c1nnc(NC(=O)C2CC2)cc1Nc1cccc(-c2ccc(C(=O)N(C)Cc3csc(C(C)C)n3)nc2)c1OC [Compound 199] | – | – | – | 8.00 to 11.00 | 6.30 to 7.30 | 6.30 to 7.30 |
| CNC(=O)c1nnc(NC(=O)C2CC2)cc1Nc1cccc(-c2cnn(C3CN(Cc4cccc(C(F)(F)F)n4)C3)c2)c1OC [Compound 200] | – | – | – | 8.00 to 11.00 | 6.30 to 7.30 | 6.30 to 7.30 |
| CNC(=O)c1nnc(NC(=O)C2CC2)cc1Nc1cccc(-c2cnn(C3CN(Cc4cccc(Br)n4)C3)c2)c1OC [Compound 201] | – | – | – | 8.00 to 11.00 | 6.30 to 7.30 | 6.30 to 7.30 |
| CNC(=O)c1nnc(NC(=O)C2CC2)cc1Nc1cccc(-c2cc(C3CN(Cc4cccc(C#N)n4)C3)n(C)n2)c1OC [Compound 202] | – | – | – | 6.30 to 7.30 | 4.00 to 5.30 | 4.00 to 5.30 |
| CNC(=O)c1nnc(NC(=O)C2CC2)cc1Nc1cccc(-c2cc(C3CN(Cc4ccccn4)C3)n(C)n2)c1OC [Compound 203] | – | – | – | 6.30 to 7.30 | 4.00 to 5.30 | 4.00 to 5.30 |
| COc1c(Nc2cc(NC(=O)C3CC3)nn3cc(C)nc23)cccc1-c1cnn(C2CN(Cc3ccccn3)C2)c1 [Compound 204] | – | – | – | 8.00 to 11.00 | 5.30 to 6.30 | 5.30 to 6.30 |
| CNC(=O)c1nnc(NC(=O)C2CC2)cc1Nc1ccc(Cl)c(-c2ccc(C(=O)N(C)Cc3cc(C#N)n(C)n3)nc2)c1OC [Compound 205] | – | – | – | 8.00 to 11.00 | 6.30 to 7.30 | 6.30 to 7.30 |
| CNC(=O)c1nnc(NC(=O)C2CC2)cc1Nc1cccc(-c2ccc(C(=O)N(C)Cc3scnc3C)nc2)c1OC [Compound 210] | – | – | – | 8.00 to 11.00 | 5.30 to 6.30 | 4.00 to 5.30 |
| CNC(=O)c1nnc(NC(=O)C2CC2)cc1Nc1cccc(-c2ccc(C(=O)N(C)Cc3cnc(C)s3)nc2)c1OC [Compound 211] | – | – | – | 8.00 to 11.00 | 5.30 to 6.30 | 4.00 to 5.30 |
| CNC(=O)c1nnc(NC(=O)C2CC2)cc1Nc1cccc(-c2cnn(C3CN(Cc4cccnc4C#N)C3)c2)c1OC [Compound 212] | – | – | – | 8.00 to 11.00 | 6.30 to 7.30 | 6.30 to 7.30 |
| CNC(=O)c1nnc(NC(=O)C2CC2)cc1Nc1cccc(-c2cnn(C3CN(Cc4cn(C)nc4C)C3)c2)c1OC [Compound 213] | – | – | – | 8.00 to 11.00 | 5.30 to 6.30 | 5.30 to 6.30 |

| SMILES | pKd ([1]; SPR, JAK2 JH2 domain) | pIC50 ([2]; TF1 JAK2 V617F) | pIC50 ([3]; TF1 JAK2 V617F) | pKd [1] | pIC50 [2, 4] | pIC50 [3, 4] |
| --- | --- | --- | --- | --- | --- | --- |
| CNC(=O)c1nnc(NC(=O)C2CC2)cc1Nc1cccc(-c2cnn(C3CN(Cc4cccc(COC)n4)C3)c2)c1OC [Compound 216] | – | – | – | 8.00 to 11.00 | 6.30 to 7.30 | 6.30 to 7.30 |
| CNC(=O)c1nnc(NC(=O)C2CC2)cc1Nc1ccc(Cl)c(-c2ccc(C(=O)N(C)Cc3cc(C#N)ccn3)cc2)c1OC [Compound 217] | – | – | – | 8.00 to 11.00 | 5.30 to 6.30 | 5.30 to 6.30 |
| CNC(=O)c1nnc(NC(=O)C2CC2)cc1Nc1nccc(-c2cnn(C3CN(Cc4ccccn4)C3)c2)c1OC [Compound 218] | – | – | – | 8.00 to 11.00 | 5.30 to 6.30 | 6.30 to 7.30 |
| COc1c(Nc2cc(NC(=O)C3CC3)nn3cc(C)nc23)cccc1-c1ccc(C(=O)N(C)Cc2cc(C#N)ccn2)nc1 [Compound 219] | – | – | – | 8.00 to 11.00 | 5.30 to 6.30 | 5.30 to 6.30 |
| CNC(=O)c1nnc(NC(=O)C2CC2)cc1Nc1cccc(-c2ccc(C(=O)N(C)Cc3cn(C)nc3C)cc2)c1OC [Compound 221] | – | – | – | 8.00 to 11.00 | 6.30 to 7.30 | 6.30 to 7.30 |
| CNC(=O)c1nnc(NC(=O)C2CC2)cc1Nc1cccc(-c2ccc(C(=O)N(C)Cc3cn(C)nc3C(F)F)nc2)c1OC [Compound 222] | – | – | – | 8.00 to 11.00 | 6.30 to 7.30 | 6.30 to 7.30 |
| CNC(=O)c1nnc(NC(=O)C2CC2)cc1Nc1ccc(Cl)c(-c2ccc(C(=O)N(C)Cc3ccn(C)n3)nc2)c1OC [Compound 223] | – | – | – | 8.00 to 11.00 | 6.30 to 7.30 | 5.30 to 6.30 |
| CNC(=O)c1nnc(NC(=O)C2CC2)cc1Nc1cccc(-c2ncn(C3CN(Cc4ccccn4)C3)n2)c1OC [Compound 224] | – | – | – | 8.00 to 11.00 | 4.00 to 5.30 | 4.00 to 5.30 |
| CNC(=O)c1nnc(NC(=O)C2CC2)cc1Nc1cccc(-c2cnn(C3CN(Cc4cccc(CO)n4)C3)c2)c1OC [Compound 228] | – | – | – | 8.00 to 11.00 | 6.30 to 7.30 | 6.30 to 7.30 |
| CNC(=O)c1nnc(NC(=O)C2CC2)cc1Nc1cccc(-c2cnn(C3CN(C(=O)c4ccccn4)C3)c2)c1OC [Compound 229] | – | – | – | 8.00 to 11.00 | 5.30 to 6.30 | 5.30 to 6.30 |
| CNC(=O)c1nnc(NC(=O)C2CC2)cc1Nc1ccc(C)c(-c2cnc(C(=O)N(C)Cc3cn(C)nc3C)c(F)c2)c1OC [Compound 230] | – | – | – | 8.00 to 11.00 | 6.30 to 7.30 | 6.30 to 7.30 |
| COc1c(Nc2cc(NC(=O)C3CC3)nn3cc(C)nc23)cccc1-c1ccc(C(=O)N(C)Cc2cn(C)nc2C)nc1 [Compound 231] | – | – | – | 8.00 to 11.00 | 5.30 to 6.30 | 5.30 to 6.30 |
| CNC(=O)c1nnc(NC(=O)C2CC2)cc1Nc1cccc(-c2cnn(C3CN(Cc4cccc(C#N)n4)C3)c2)c1 [Compound 232] | – | – | – | 7.30 to 8.00 | 4.00 to 5.30 | 4.00 to 5.30 |
| CNC(=O)c1nnc(NC(=O)C2CC2)cc1Nc1nccc(-c2ccc(C(=O)N(C)Cc3cc(C#N)ccn3)nc2)c1OC [Compound 240] | – | – | – | 8.00 to 11.00 | 5.30 to 6.30 | 6.30 to 7.30 |
| CNC(=O)c1nnc(NC(=O)C2CC2)cc1Nc1cccc(-c2cnn(C3CN(Cc4cccc(C#CC5CC5)n4)C3)c2)c1OC [Compound 241] | – | – | – | 8.00 to 11.00 | 6.30 to 7.30 | 6.30 to 7.30 |
| CNC(=O)c1nnc(NC(=O)C2CC2)cc1Nc1cccc(-c2cnn(C3CN(Cc4cccc(N)n4)C3)c2)c1OC [Compound 242] | – | – | – | 8.00 to 11.00 | 6.30 to 7.30 | 6.30 to 7.30 |
| CNC(=O)c1nnc(NC(=O)C2CC2)cc1Nc1cccc(-c2cnn(C3CN(Cc4cccc(OC(F)F)n4)C3)c2)c1OC [Compound 243] | – | – | – | 8.00 to 11.00 | 6.30 to 7.30 | 6.30 to 7.30 |
| CNC(=O)c1nnc(NC(=O)C2CC2)cc1Nc1cccc(-c2ccc(C(=O)N(C)Cc3ncc(COC)s3)nc2)c1OC [Compound 244] | – | – | – | 8.00 to 11.00 | 6.30 to 7.30 | 6.30 to 7.30 |
| CNC(=O)c1nnc(NC(=O)C2CC2)cc1Nc1cccc(-c2cnn(C3CN(Cc4cccc5ncnn45)C3)c2)c1OC [Compound 248] | – | – | – | 8.00 to 11.00 | 6.30 to 7.30 | 6.30 to 7.30 |
| CNC(=O)c1nnc(NC(=O)C2CC2)cc1Nc1cccc(-c2cnn(C3CN(Cc4ccc(C#N)cn4)C3)c2)c1OC [Compound 249] | – | – | – | 7.30 to 8.00 | 4.00 to 5.30 | 4.00 to 5.30 |
| CNC(=O)c1nnc(NC(=O)C2CC2)cc1Nc1cccc(-c2cnn(C3CN(Cc4cc(Cl)ccn4)C3)c2)c1OC [Compound 250] | – | – | – | 8.00 to 11.00 | 6.30 to 7.30 | 6.30 to 7.30 |
